Reference: ChEMBL document CHEMBL1806496, “Nothospondin, a new AP-1 inhibitory quassinoid from the Cameroonian plant Nothospondias staudtii” (Bioorg Med Chem Lett, 2011)

Experiments:
Transcription factor Jun = Transcription factor Jun (Homo sapiens, UniProt P05412); assay: Inhibition of TPA-induced AP-1 activity expressed in human HEK293T cells treated 1 hr before TPA challenge measured after 18 hrs by FRET based beta-lactamase reporter assay; format: cell-based, HEK-293T; settings: for inhibition: HEK-293T
HEK-293T [1] = assay: Cytotoxicity against human HEK293T cells expressing AP-1 at 80 uM after 18 hrs by XTT assay; format: cell-based
HEK-293T [2] = assay: Cytotoxicity against human HEK293T cells expressing AP-1 after 18 hrs by XTT assay; format: cell-based

Transcription factor Jun, sequence (P05412 whole entry): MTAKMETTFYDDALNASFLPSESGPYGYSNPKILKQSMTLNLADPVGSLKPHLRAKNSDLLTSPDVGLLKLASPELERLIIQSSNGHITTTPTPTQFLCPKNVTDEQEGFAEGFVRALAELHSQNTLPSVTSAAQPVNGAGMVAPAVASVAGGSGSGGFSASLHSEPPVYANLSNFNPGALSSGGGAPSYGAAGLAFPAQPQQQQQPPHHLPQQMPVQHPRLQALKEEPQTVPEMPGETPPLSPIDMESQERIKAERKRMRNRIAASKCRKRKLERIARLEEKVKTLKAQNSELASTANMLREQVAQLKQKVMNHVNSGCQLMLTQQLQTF

CC[C@](C)(O)C(=O)O[C@H]1C(=O)O[C@@H]2C[C@H]3C(C)=CC(=O)[C@@H](O)[C@]3(C)[C@H]3[C@@]4(O)OC[C@]32[C@@H]1[C@@H](C)[C@H]4O [GLAUCARUBINONE]
EC50 (Transcription factor Jun): 0.13 µM | inhibition (Transcription factor Jun): Dose-dependent effect | Activity (HEK-293T [1]): Non-toxic

COC1=C(C)[C@@H]2CC(=O)O[C@@H]3C[C@H]4[C@H](C)[C@@H](O)[C@H](O)C(=O)[C@]4(C)[C@@H](C1=O)[C@@]32C [NOTHOSPONDIN]
EC50 (Transcription factor Jun): 1.49 µM | inhibition (Transcription factor Jun): Dose-dependent effect | IC50 (HEK-293T [2]): 10 µM
